Measured values reported in patent publication US20210052600A1, “THERAPEUTIC AGENTS FOR STRESS URINARY INCONTINENCE AND INCOTINENCE OF FECES” (Takeda Pharmaceutical Company Limited, priority 2017, published 2021).
pEC50: −log10 of the molar value.

Legend:
urethral resistance [1] = test: Rat urethral resistance (LPP) measured by high speed infusion of saline into the bladder; format: in vivo; conditions: for LPP Post: 30 minutes after administration; for LPP Post / LPP Increase / LPP Pre: mean ± SEM; for LPP Increase: Post minus Pre; for LPP Pre: before administration
Description: The rats were anesthetized with isoflurane. Their spinal cord was transected at the T8-T9 (the eighth thoracic cord—the ninth thoracic cord) level. After opening of the bladder dome, two polyethylene tubes (PE-100) were inserted into the bladder. The incised portion of the bladder was closed with sutures, and the other incisions were also closed. The rats were placed in Bollman cages. The catheter for intravesical pressure measurement was connected to a pressure transducer, while the catheter for saline filling was connected to a syringe filled with Evans Blue-dyed saline. Change in intravesical pressure was recorded using the pressure transducer via an electric signal amplifier and an analog-to-digital converter. After recovery of the animals from anesthesia, the intravesical pressure measurement was started, and saline was infused at a speed of 0.1 mL/sec into the bladder using an infusion pump. The infusion was stopped when the leakage of the saline from the urethral orifice was observed. Immediately thereafter, the bladder was emptied by releasing the pressure. In this operation, the peak of recorded intravesical pressure during the saline infusion was used as LPP in this Example. This measurement was repeated, and the average LPP from the last three measurements was used as the LPP value of the trial. The mean from 2 such trials was used as a Pre value. 0.5% MC was used as the vehicle. […] The difference in LPP from the Pre value (increased amount of LPP) was calculated. Regarding change in LPP before and after drug administration, the differences between the mean values of the drug-treated and vehicle-treated groups were analyzed by the one-tailed Williams' test.

urethral resistance [2] = test: Urethral resistance (LPP) during intravesical pressure rise by electrical stimulation of rat abdominal muscle; format: in vivo; conditions: mean ± SEM; for LPP Post: 30 minutes after administration; for LPP Increase: Post minus Pre; for LPP Pre: before administration
Description: Fifty six female rats of Sprague-Dawley strain (hereinafter, referred to as “SD strain”) were used. The rats were anesthetized with urethane, and their spinal cord was transected at the T8-T9 (the eighth thoracic cord—the ninth thoracic cord) level for the elimination of reflex voiding. Isoflurane inhalation was added, if necessary. After opening of the abdomen, a catheter (PE-100) was inserted into the bladder. In order to secure reduced urethral resistance, unilateral nerve to iliococcygeus and pubococcygeus muscles was transected. For intraduodenal administration, another catheter (PE-50) was inserted into the duodenum in advance. The abdominal muscle and skin were each closed with sutures. Two (right and left) sites of abdominal skin near the diaphragm were cut to expose abdominal muscle. The bladder was emptied through the catheter, followed by the injection of 0.2 to 0.3 mL of 0.1% Evans blue solution. Change in intravesical pressure was recorded using the bladder catheter via a pressure transducer, an electric signal amplifier, and an analog-to-digital converter. While change in intravesical pressure was recorded, the presence or absence of fluid leakage from the urethral orifice was observed under the electrical stimulation of the exposed abdominal muscle using an electrical stimulator and an isolator. […] The peak of the intravesical pressure during the stimulation of the abdominal muscle was measured, and the lowest pressure at which the fluid leakage was observed among the trials was defined as leak point pressure (hereinafter, referred to as “LPP”) for the electrical abdominal muscle stimulation method and used as an index for urethral resistance. Each drug was evaluated for its effect by comparing LPP before drug administration with that after drug administration. […] The drugs were suspended in 0.5% methylcellulose solution (MC). […] LPP was measured again 30 minutes after administration. Regarding change in LPP before and after drug administration, the differences between the mean values of the drug-treated and vehicle groups were analyzed by the one-tailed Williams' test.

human 5-HT2C receptors = molecular target: T1, human 5-HT2C receptors (Homo sapiens, UniProt P28335); test: In vitro test of agonistic potency on human 5-HT2C receptor (change in intracellular Ca2+); format: cell-based; conditions: CHO-K1 cells expressing recombinant human 5-HT2C receptors; intracellular Ca2+ (Fluo-4)
T1 construct: expressed in transfected cells; host or cells: CHO-K1 cells
T1 sequence (P28335 33-458): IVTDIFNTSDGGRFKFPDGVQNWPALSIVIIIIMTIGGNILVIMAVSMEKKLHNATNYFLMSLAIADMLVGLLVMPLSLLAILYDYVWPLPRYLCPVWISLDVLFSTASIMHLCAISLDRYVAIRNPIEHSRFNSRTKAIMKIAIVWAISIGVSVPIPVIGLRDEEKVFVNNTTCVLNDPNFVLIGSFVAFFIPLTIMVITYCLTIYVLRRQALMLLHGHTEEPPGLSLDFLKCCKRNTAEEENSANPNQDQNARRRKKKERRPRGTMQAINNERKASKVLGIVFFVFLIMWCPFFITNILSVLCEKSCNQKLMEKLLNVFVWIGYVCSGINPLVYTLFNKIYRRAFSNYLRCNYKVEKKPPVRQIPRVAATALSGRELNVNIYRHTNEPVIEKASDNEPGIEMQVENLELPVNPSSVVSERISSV

anus-closing functions = test: Rat anus-closing functions (Anal LPP) measured by high speed infusion of saline into the rectum; format: in vivo; conditions: 5 minutes after administration, mean ± SEM
Description: Thirty six female SD rats were used. After overnight fasting, rats were intraperitoneally administered with urethane for anesthesia, and isoflurane inhalation was further added during surgery. The abdomen was incised to expose the rectum, and a small incision of the rectum was made. A polyethylene catheter (SP61, Natsume) was inserted into the rectum through the rectum incision, and the tip of the catheter was positioned around 5 mm from the anal orifice. The other end of the catheter was connected with a pressure transducer and an infusion pump via three-way stopcocks, and the change in pressure in the rectum was measured using the pressure transducer, an electric signal amplifier, and an analog-to-digital converter. For administrating drugs, a polyethylene catheter (SP45, Natsume) was inserted into the femoral vein after exposing the vein by small incision.
After recovery period from surgery, while saline was infused at a speed of 0.1 mL/sec into the rectum using an infusion pump, change in the measured pressure—was observed. The infusion was stopped when the leakage of the saline from the anal orifice was observed. In the procedure, sudden decrease in the pressure was observed during the infusion with the leakage of saline from the anal orifice. The peak value of the pressure recorded in the rectum during the course of the procedures was defined as “an Anal LPP” in this Example. […] The Anal LPP was again measured in the same way 5 minutes after drug administration. The difference in Anal LPP from the Pre value (increased amount of Anal LPP) was calculated. Regarding change in Anal LPP before and after drug administration, the differences between the mean values of the drug-treated and vehicle-treated groups were analyzed by the one-tailed Williams' test or Student's t-test.

Structure (SMILES): CC(C)N(C)c1cnc2c(n1)OCCNC2.Cl [Compound A′, N-methyl-N-(1-methylethyl)-6,7,8,9-tetrahydropyrazino[2,3-f][1,4]oxazeine-3-amine]
- LPP Post (urethral resistance [1]; 1.25 mg/kg p.o.): 63.2 ± 4.7 cmH2O
- LPP Increase (urethral resistance [1]; 1.25 mg/kg p.o.): 5.5 ± 3.0 cmH2O
- LPP Pre (urethral resistance [1]; 1.25 mg/kg p.o.): 57.7 ± 3.6 cmH2O
- LPP Post (urethral resistance [1]; 2.5 mg/kg p.o.): 70.2 ± 3.8 cmH2O
- LPP Increase (urethral resistance [1]; 2.5 mg/kg p.o.): 10.9 ± 2.2 cmH2O
- LPP Pre (urethral resistance [1]; 2.5 mg/kg p.o.): 59.2 ± 2.6 cmH2O
- LPP Post (urethral resistance [1]; 5 mg/kg p.o.): 75.9 ± 3.3 cmH2O
- LPP Increase (urethral resistance [1]; 5 mg/kg p.o.): 15.3 ± 3.7 cmH2O
- LPP Pre (urethral resistance [1]; 5 mg/kg p.o.): 60.6 ± 3.6 cmH2O
- LPP Post (urethral resistance [1]; 10 mg/kg p.o.): 78.4 ± 5.6 cmH2O
- LPP Increase (urethral resistance [1]; 10 mg/kg p.o.): 21.7 ± 4.4 cmH2O
- LPP Pre (urethral resistance [1]; 10 mg/kg p.o.): 56.7 ± 2.4 cmH2O
- LPP Post (urethral resistance [1]; 20 mg/kg p.o.): 77.7 ± 3.5 cmH2O
- LPP Increase (urethral resistance [1]; 20 mg/kg p.o.): 21.5 ± 3.4 cmH2O
- LPP Pre (urethral resistance [1]; 20 mg/kg p.o.): 56.3 ± 5.1 cmH2O
- LPP10, the dose that increases LPP by 10 cm H2O (urethral resistance [1]; oral administration, high speed saline infusion method): 1.6 mg/kg
- LPP Post (urethral resistance [2]; 0.3 mg/kg i.d.): 55.0 ± 5.4 cmH2O
- LPP Increase (urethral resistance [2]; 0.3 mg/kg i.d.): 7.8 ± 3.2 cmH2O
- LPP Pre (urethral resistance [2]; 0.3 mg/kg i.d.): 47.2 ± 5.7 cmH2O
- LPP Post (urethral resistance [2]; 1 mg/kg i.d.): 61.5 ± 4.9 cmH2O
- LPP Increase (urethral resistance [2]; 1 mg/kg i.d.): 14.2 ± 2.7 cmH2O
- LPP Pre (urethral resistance [2]; 1 mg/kg i.d.): 47.3 ± 5.0 cmH2O
- LPP Post (urethral resistance [2]; 3 mg/kg i.d.): 77.3 ± 8.1 cmH2O
- LPP Increase (urethral resistance [2]; 3 mg/kg i.d.): 29.7 ± 5.5 cmH2O
- LPP Pre (urethral resistance [2]; 3 mg/kg i.d.): 47.6 ± 3.1 cmH2O
- pEC50 (human 5-HT2C receptors): 8.59
- Anal LPP Increase (anus-closing functions; 0.3 mg/kg i.v.): 6.2 ± 3.1 cmH2O
- Anal LPP Increase (anus-closing functions; 1 mg/kg i.v.): 30.2 ± 9.6 cmH2O
